We go through two compounds from ChEMBL document CHEMBL4673356, “Assessing the cellular toxicity of peptide inhibitors of intracellular protein-protein interactions by microinjection” (Bioorg Med Chem, 2021).

A short description of series [1]: Stability of the compound in human AD293 cells assessed as intact compound remaining at 20 uM measured after 5 hrs by LC-MS analysis. The class given is ADME, cell-based. The settings on record: read-out: Stabilty.
Series [2] relates to AD293. In words: Cytotoxicity against human AD293 cells assessed as cell viability at 200 uM. The class given is cell-based. As to conditions: ad293, 200 µM; call rule not given here.
For series [3], the system named is AD293. Kind of series: Cytotoxicity against human AD293 cells assessed as cell viability at 2.7 to 273 uM co-treated via microinjection with Cy5-BSA into cytoplasm and measured after 5 hrs by Cy5-BSA/PI staining based fluorescence analysis. The settings on record: ad293, 5 h, dose 2.7-273 µM.
The subject of series [4] is AD293. Kind of series: Cytotoxicity against human AD-293 cells assessed as morphologically intact viable cells at 2.7 to 273 uM co-treated via microinjection with Cy5-BSA into cytoplasm and measured after 5 hrs by Cy5-BSA/PI staining based fluorescence analysis. The settings on record: ad293, 5 h, dose 2.7-273 µM. The series is classed as cell-based.
Series [5] can be described thus: Stability of the compound in human AD293 cells assessed as intact compound remaining at 20 uM measured after 24 hrs by LC-MS analysis. The class given is ADME, cell-based. The settings on record: read-out: Stabilty.
The subject of series [6] is AD293. In words: Cytotoxicity against human AD293 cells assessed as cell viability at 2.7 to 273 uM co-treated via microinjection with Cy5-BSA into nucleus and measured after 5 hrs by Cy5-BSA/PI staining based fluorescence analysis. As to conditions: ad293, 5 h, dose 2.7-273 µM.
The nature of series [7]: Inhibition of iNOS (unknown origin) and SPSB2 interaction assessed as binding affinity to murine SPSB2 immobilized on CM5 chip by SPR assay. Also noted: species or system Mus musculus. (In general: Surface plasmon resonance follows binding to a sensor surface in real time, without labels.)
A short description of series [8]: Drug localization in cytosol of human AD293 cells at 7.3 uM treated via microinjection into cytoplasm measured up to 5 hrs by confocal microscopic analysis. The series is classed as ADME, subcellular.

Structures are written as SMILES. pKd: −log10 of the molar value. Where a SMILES comes first, the peptide text is derived from it. [ ]: non-standard residue; d: D form. The star is where a group is joined. X1 = CCN1/C(=C/C=C/C=C/C2=[N+](CCCCCC(=O)*)c3ccc(S(=O)(=O)[O-])cc3C2(C)C)C(C)(C)c2cc(S(=O)(=O)O)ccc21; βAla = NCCC(=O)O

The term pKd denotes −log10 of the Kd, conventionally taken in molar units. Take `CC[C@H](C)[C@@H]1NC(=O)[C@H](CC(=O)O)NC(=O)[C@H](Cc2c[nH]c3ccccc23)NC(=O)CCNC(=O)[C@H](CC(N)=O)NC(=O)[C@H](CC(N)=O)NC(=O)[C@H](CC(N)=O)NC1=O` (cyclo(DINNN[βAla]W)): in series [1], the remaining at 5 h, 20 µM is 97.5%. Moreover, the Activity result in series [2], in series [3], in series [4] and in series [6] was “Non-Toxic” each time. Besides, in series [5], the remaining at 24 h, 20 µM worked out at 94.7%. The pKd in series [7] is 7.68.

Turning to `CCN1/C(=C/C=C/C=C/C2=[N+](CCCCCC(=O)NCCCC[C@@H]3NC(=O)[C@H](CC(=O)O)NC(=O)[C@H](Cc4c[nH]c5ccccc45)NC(=O)CCNC(=O)[C@H](CC(N)=O)NC(=O)[C@H](CC(N)=O)NC(=O)[C@H](CC(N)=O)NC3=O)c3ccc(S(=O)(=O)[O-])cc3C2(C)C)C(C)(C)c2cc(S(=O)(=O)O)ccc21` (cyclo(DK(X1)NNN[βAla]W)), the Drug uptake entry in series [8] is listed as “Active”. In addition, in series [7], the negative logarithm of the Kd (pKd) was 6.96.
